Reference: the NIST ThermoML archive (doi:10.1021/acs.jced.8b01053)
Numbers after ± are expanded uncertainties.

Conditions: Liquid, Ebulliometric method (Recirculating still)

vapor or sublimation pressure (391.07 K)	vapor or sublimation pressure (413.46 K)	vapor or sublimation pressure (330.01 K)	vapor or sublimation pressure (349.53 K)	Structure (SMILES)
50 ± 1 kPa	100 ± 1 kPa	–	–	CC(=O)OCCC(C)C [3-methylbutyl ethanoate]
–	–	50 ± 1 kPa	100 ± 1 kPa	CCOC(C)=O [ethyl acetate]
